# In the supplement of paper PMC10307832:
# Assays:
# [1] = compound: Cc1nc(C(=O)NCC(=O)O)c(O)c2ccc(Oc3ccccc3)cc12 [FG-4592] + Cc1nc(Nc2ncc(C(=O)Nc3c(C)cccc3Cl)s2)cc(N2CCN(CCO)CC2)n1 [Dasatinib] (partner 0.075 µM); test: relative viability (nuclei count vs DMSO), 5 days (fraction); higher = more cells survive
# Method in brief: (§1)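 Lung cancer cell lines, seeded in 1536-well plates, were treated the following day by pin tool with a single drug or with five library-drug doses (not always all listed) in √10 steps on top of a fixed anchor-drug dose. Cells were fixed and nuclei stained in one step after 5 days, and nuclei were counted. Relative viability is the nuclei count for treated wells divided by that for vehicle wells, reported as medians of duplicate plates.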
# [2] = compound: CC1=CC(=C(N1C2=CC=C(C=C2)Cl)C)C(=O)CN3CCCCC3 [IU1-47] + CC(=O)Nc1cccc(-n2c(=O)n(C3CC3)c(=O)c3c(Nc4ccc(I)cc4F)n(C)c(=O)c(C)c32)c1 [Trametinib] (partner 0.02 µM); test: as above
# Method in brief: as §1
Cell Line,relative viability ([1]; first compound 0.08 µM),relative viability ([1]; first compound 0.253 µM),relative viability ([1]; first compound 0.8 µM),relative viability ([1]; first compound 2.53 µM),relative viability ([1]; first compound 8 µM),relative viability ([2]; first compound 0.08 µM),relative viability ([2]; first compound 0.253 µM),relative viability ([2]; first compound 0.8 µM),relative viability ([2]; first compound 2.53 µM),relative viability ([2]; first compound 8 µM)
NCI-H2085,0.17,0.228,0.196,0.254,0.264,0.515,0.471,0.577,0.614,0.523
SW 1573,0.528,0.344,0.522,0.354,0.406,0.656,0.59,0.683,0.721,0.489
NCI-H727,0.375,0.473,0.326,0.49,0.41,0.438,0.349,0.369,0.375,0.368
NCI-H441,0.56,0.547,0.524,0.55,0.555,0.37,0.338,0.395,0.595,0.439
LOU-NH91,0.554,0.521,0.512,0.559,0.533,0.904,0.845,0.844,0.795,0.749
NCI-H3122,0.737,0.824,0.877,0.983,0.563,0.253,0.287,0.268,0.309,0.222
NCI-H460,0.527,0.511,0.43,0.457,0.368,0.134,0.127,0.2,0.129,0.18
NCI-H650,0.464,0.491,0.393,0.407,0.392,0.96,0.958,0.863,0.91,1.06
NCI-H661,0.983,0.825,0.874,0.827,0.835,0.576,0.57,0.576,0.464,0.471
NCI-H1793,0.37,0.311,–,0.354,0.328,0.42,–,0.554,0.513,0.416
NCI-H1734,0.409,0.465,0.444,0.454,0.401,0.867,0.67,0.593,0.647,0.645
LXF-289,0.22,0.186,0.19,0.168,0.189,0.689,0.726,0.645,0.68,0.668
H3255,0.361,0.418,0.417,0.404,0.48,0.636,0.643,0.7,–,0.587
201T,0.549,0.566,0.616,0.569,0.646,0.719,0.747,0.715,0.7,0.73
NCI-H2126,0.642,0.578,0.476,0.506,0.384,0.642,0.595,0.592,0.498,0.534
HOP-62,0.637,0.569,0.567,0.642,0.628,0.4,0.332,0.387,0.383,0.348
